# Test results published in patent US20250082633A1, “COMPOUNDS AND METHODS FOR MODULATING SPLICING” (REMIX THERAPEUTICS INC., priority 2021, published 2025).
# Read-outs that look alike come from different tables or passages of the source.
# Columns and labels:
# Target C = assay: RT-qPCR splicing assay, gene panel, Target C canonical junction (CJ) mRNA; assay type: cell-based; conditions: Homo sapiens, read-out: Target C CJ IC50
# Outline: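 A673 (DMEM/10% FBS) or K562 (IMDM/10% FBS) cells were treated 24 h at 37 °C with an 11-point 3-fold dilution series, top final 10 uM, DMSO ≤0.25%. Lysates underwent one-step RT-qPCR for the canonical-junction isoform with GAPDH, GUSB or PPIA as housekeeper. ΔΔCt versus DMSO was converted to RQ (2^−ΔΔCt), then to percent response.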
# K562 cells = assay: Cell Titer Glo 2.0 cell viability assay; assay type: cell-based; conditions: Homo sapiens, 500 cells/well, 72 hours
# Outline: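 K562 cells (500/well) in IMDM with 10% FBS were exposed to serially diluted compounds at 0.1% DMSO final. After 72 h at 37° C, 5% CO2, viability was read by CellTiter-Glo 2.0 luminescence, with medium-only blanks.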
# [1] = decrease in CJ mRNA levels, larger panel of genes, Table 3
IC50 (Target C; [1]) [nM],GI50 (K562 cells) [nM],SMILES,IC50 (Target C) [nM]
1000 to 10000,1000 to 10000,"Cc1cn2cc(-c3cc(F)c4nn(C5CCNCC5)cc4c3)nc(C)c2n1 [Compound 132, 6-[7-fluoro-2-(4-piperidyl)indazol-5-yl]-2,8-dimethyl-imidazo[1,2-a]pyrazine]",–
100 to 1000,100 to 1000,"Cc1cc(-c2cc(F)c3nn(C4CCNCC4)cc3c2)cc2cn(C)nc12 [Compound 133, 5-(2,7-dimethylindazol-5-yl)-7-fluoro-2-(4-piperidyl)indazole]",–
> 10000,1000 to 10000,"Cc1nc2ccc(-c3cc(F)c4nn(C5CCNCC5)cc4c3)cc2s1 [Compound 134, 6-(7-fluoro-2-(piperidin-4-yl)-2H-indazol-5-yl)-2-methylbenzo[d]thiazole]",–
100 to 1000,100 to 1000,"Cc1nc2ccc(-c3cc(F)c4nn(C5CCNCC5)cc4c3)cc2o1 [Compound 135, 6-[7-fluoro-2-(4-piperidyl)indazol-5-yl]-2-methyl-1,3-benzoxazole]",–
100 to 1000,100 to 1000,"Cc1nc2c(F)cc(-c3cc(F)c4nn(C5CCNCC5)cc4c3)cc2o1 [Compound 136, 4-fluoro-6-[7-fluoro-2-(4-piperidyl)indazol-5-yl]-2-methyl-1,3-benzoxazole]",–
100 to 1000,100 to 1000,"Cc1nc2c(C)cc(-c3cc(F)c4nn(C5CCNCC5)cc4c3)cc2o1 [Compound 137, 6-[7-fluoro-2-(4-piperidyl)indazol-5-yl]-2,4-dimethyl-1,3-benzoxazole]",–
100 to 1000,1000 to 10000,"Cc1cn2nc(-c3ccc4nn(C5CCNCC5)cc4n3)cc(C)c2n1 [Compound 138, 2,8-dimethyl-6-[2-(4-piperidyl)pyrazolo[4,3-b]pyridin-5-yl]imidazo[1,2-b]pyridazine]",–
1000 to 10000,> 10000,"COc1cc(-c2cc3cn(C)nc3cc2O)nc2cn(C3CCNCC3)nc12 [Compound 140, 5-[7-methoxy-2-(4-piperidyl)pyrazolo[4,3-b]pyridin-5-yl]-2-methyl-indazol-6-ol]",–
> 10000,1000 to 10000,COC1=C(C)C2N=C(C)OC2C=C1c1cc(F)c2nn(C3CCNCC3)cc2n1 (stereo not shown) [Compound 144],–
100 to 1000,1000 to 10000,"Cn1cc2cc(-c3cc(F)c4nn(C5CCNCC5)cc4c3)ccc2n1 [Compound 145, 7-fluoro-5-(2-methylindazol-5-yl)-2-(4-piperidyl)indazole]",–
100 to 1000,100 to 1000,"CCN1CCC(n2cc3cc(-c4cc(C)c5nc(C)cn5n4)cc(F)c3n2)CC1 [Compound 146, 6-[2-(1-ethyl-4-piperidyl)-7-fluoro-indazol-5-yl]-2,8-dimethyl-imidazo[1,2-b]pyridazine]",–
100 to 1000,100 to 1000,"Cc1cn2nc(-c3cc4cn(C5CCNCC5)nc4cn3)cc(C)c2n1 [Compound 147, 2,8-dimethyl-6-[2-(4-piperidyl)pyrazolo[3,4-c]pyridin-5-yl]imidazo[1,2-b]pyridazine]",–
> 10000,> 10000,"Cn1cc2cc(-c3ccc4cn(C5CCNCC5)nc4c3)cc(F)c2n1 [Compound 148, 7-fluoro-2-methyl-5-[2-(4-piperidyl)indazol-6-yl]indazole]",–
< 100,< 100,"Cc1cn2nc(-c3cc(F)c4nn(C5CCN(CC6CC6)CC5)cc4c3)cc(C)c2n1 [Compound 149, 6-[2-[1-(cyclopropylmethyl)-4-piperidyl]-7-fluoro-indazol-5-yl]-2,8-dimethyl-imidazo[1,2-b]pyridazine]",–
100 to 1000,100 to 1000,"Cc1cn2nc(-c3cc4cn(C5CCNCC5)nc4cc3O)cc(C)c2n1 [Compound 154, 5-(2,8-dimethylimidazo[1,2-b]pyridazin-6-yl)-2-(piperidin-4-yl)-2H-indazol-6-ol]",–
100 to 1000,100 to 1000,"COc1cc(-c2cc(C)c3nc(C)cn3n2)cc2cn(C3CCNCC3)nc12 [Compound 155, 6-(7-methoxy-2-(piperidin-4-yl)-2H-indazol-5-yl)-2,8-dimethylimidazo [1,2-b]pyridazine]",–
1000 to 10000,1000 to 10000,"Cc1cn2nc(-c3cc(O)c4nn(C5CCNCC5)cc4c3)cc(C)c2n1 [Compound 156, 5-(2,8-dimethylimidazo[1,2-b]pyridazin-6-yl)-2-(piperidin-4-yl)-2H-indazol-7-ol]",–
> 10000,> 10000,"Cc1ccc2nc(-c3cc(F)c4nn(C5CCNCC5)cc4c3)ccc2n1 [Compound 157, 2-[7-fluoro-2-(4-piperidyl)indazol-5-yl]-6-methyl-1,5-naphthyridine]",–
> 10000,1000 to 10000,"Fc1cc(-c2ccc3ccncc3c2)cc2cn(C3CCNCC3)nc12 [Compound 158, 7-[7-fluoro-2-(4-piperidyl)indazol-5-yl]isoquinoline]",–
> 10000,> 10000,"COc1cc2nn(C3CCNCC3)cc2cc1-c1cc(C)c2nc(C)cn2n1 [Compound 159, 6-(6-methoxy-2-(piperidin-4-yl)-2H-indazol-5-yl)-2,8-dimethylimidazo[1,2-b]pyridazine]",–
1000 to 10000,1000 to 10000,"Fc1cc(-c2ccc3cnccc3c2)cc2cn(C3CCNCC3)nc12 [Compound 161, 6-[7-fluoro-2-(4-piperidyl)indazol-5-yl]isoquinoline]",–
> 10000,1000 to 10000,"Fc1cc(-c2ccc3ncccc3c2)cc2cn(C3CCNCC3)nc12 [Compound 162, 6-[7-fluoro-2-(4-piperidyl)indazol-5-yl]quinoline]",–
> 10000,1000 to 10000,"Cc1ccc2cc(-c3cc(F)c4nn(C5CCNCC5)cc4c3)ccc2n1 [Compound 163, 6-[7-fluoro-2-(4-piperidyl)indazol-5-yl]-2-methyl-quinoline]",–
> 10000,> 10000,"Cc1ncc2cc(-c3cc(F)c4nn(C5CCNCC5)cc4c3)ccc2n1 [Compound 165, 6-[7-fluoro-2-(4-piperidyl)indazol-5-yl]-2-methyl-quinazoline]",–
100 to 1000,1000 to 10000,"Cc1cn2nc(-c3cc(F)c4nn(C5CCNCC5F)cc4c3)cc(C)c2n1 (stereo not shown) [Compound 166, 6-[7-fluoro-2-(3-fluoro-4-piperidyl)indazol-5-yl]-2,8-dimethyl-imidazo [1,2-b]pyridazine]",–
100 to 1000,1000 to 10000,"Cc1cn2nc(-c3cc(F)c4nn([C@H]5CCNC[C@@H]5F)cc4c3)cc(C)c2n1 [Compound 167, 6-(7-fluoro-2-((3S,4S)-3-fluoropiperidin-4-yl)-2H-indazol-5-yl)-2,8-dimethylimidazo[1,2-b]pyridazine]",–
100 to 1000,100 to 1000,"Cc1cn2nc(-c3cc(F)c4nn([C@@H]5CCNC[C@H]5F)cc4c3)cc(C)c2n1 [Compound 168, 6-(7-fluoro-2-((3R,4R)-3-fluoropiperidin-4-yl)-2H-indazol-5-yl)-2,8-dimethylimidazo [1,2-b]pyridazine]",–
< 100,100 to 1000,"Cc1cn2nc(-c3cc(F)c4nn(C5CCNC6(CC6)C5)cc4c3)cc(C)c2n1 (stereo not shown) [Compound 171, 6-[2-(4-azaspiro[2.5]octan-7-yl)-7-fluoro-indazol-5-yl]-2,8-dimethyl-imidazo[1,2-b]pyridazine]",–

SMILES,IC50 (Target C; [1]) [nM],GI50 (K562 cells) [nM],IC50 (Target C) [nM]
"Cc1cn2nc(-c3cc(F)c4nn(C5CCN(CCO)CC5)cc4c3)cc(C)c2n1 [Compound 160, 2-[4-[5-(2,8-dimethylimidazo[1,2-b]pyridazin-6-yl)-7-fluoro-indazol-2-yl]-1-piperidyl]ethanol]",–,100 to 1000,100 to 1000
